# Measured values reported in patent US8101768B2, “Cyclic amine compound and pest control agent” (Nippon Soda Co., Ltd., priority 2004, dated 2012).
# Tested on: organophosphorous agent resistant two-spotted spider mites
# Test: Effect on Two-spotted Spider Mite (spray on kidney bean leaves)
# Format: in vivo
# Conditions: 125 ppm, water dispersible powder of Formulation Example 1 sprayed, 17 female adults, 25° C., 65% humidity, 3 days
# Source text: Effect on Two-spotted Spider Mite
# 17 female adults of organophosphorous agent resistant two-spotted spider mites were inoculated onto the first leaves of kidney beans seeded onto 3.5 inch pots and germinated 7 to 10 days before, onto which each of liquid agents, diluted with water so as to adjust the respective concentration of the chemical compounds to 125 ppm according to the formulation of the water dispersible powder shown in the aforementioned Formulation Example 1, was sprayed. After they were left in a thermostatic chamber at 25° C. in 65% humidity for 3 days, the rate of killed adults was investigated. The examination was repeated twice. As the results, the following chemical compounds killed 100% of the adults.
row,SMILES,rate of killed adults [%]
1,CCCOc1cc(C(F)(F)F)ccc1OC1CCN(c2ccc(C(F)(F)F)cn2)CC1 [1-92],100
2,CCCC(O)c1cc(C(F)(F)F)ccc1OC1C2CCC1CN(c1ccc(C(F)(F)F)cn1)C2 (stereo not shown) [5-227],100
3,CCOC(=O)c1cc(C(F)(F)F)ccc1OC1C2CCC1CN(c1ccc(C(F)(F)F)cn1)C2 (stereo not shown) [5-233],100
4,FC(F)(F)c1ccc(N2CC3CCC(C2)C3Oc2ccc(C(F)(F)F)cc2C2OCCO2)nc1 (stereo not shown) [5-215],100
5,CC1CNC(c2cc(C(F)(F)F)ccc2O[C@@H]2[C@@H]3CC[C@H]2CN(c2ccc(C(F)(F)F)cn2)C3)O1 (stereo partly shown) [5-260],100
6,CCCNc1cc(C(F)(F)F)ccc1OC1C2CCC1CN(c1ccc(C(F)(F)F)cn1)C2 (stereo not shown) [5-190],100
7,COCOCc1cc(C(F)(F)F)ccc1O[C@@H]1[C@@H]2CC[C@H]1CN(c1ccc(C(F)(F)F)cn1)C2 [5-69],100
8,CCOCOCc1cc(C(F)(F)F)ccc1OC1CCN(c2ccc(C(F)(F)F)cn2)CC1 [1-71],100
9,"CCCCc1cc(C(F)(F)F)ccc1O[C@H]1C[C@H]2CC[C@@H](C1)N2c1ccc(C(F)(F)F)cn1 [2-187, 3α-[2-butyl-4-(trifluoromethyl)phenoxy]-8-[5-(trifluoromethyl)-2-pyridyl]-8-azabicyclo[3.2.1]octane]",100
10,COCOCCOc1cc(C(F)(F)F)ccc1OC1CCN(c2ccc(C(F)(F)F)cn2)CC1 [1-117],100
11,CCCCOc1cc(C(F)(F)F)ccc1OC1CC2CCC(C1)N2c1ccc(C(F)(F)F)cn1 (stereo not shown) [2-97],100
12,C#CCOc1cc(C(F)(F)F)ccc1OC1CCN(c2ccc(C(F)(F)F)cn2)CC1 [1-163],100
13,CC(Cl)COc1cc(C(F)(F)F)ccc1OC1C2CCC1CN(c1ccc(C(F)(F)F)cn1)C2 (stereo not shown) [5-138],100
14,CCC(C)OC(=O)c1cc(C(F)(F)F)ccc1OC1CC2CCC(C1)N2c1ccc(C(F)(F)F)cn1 (stereo not shown) [2-208],100
15,CC(C)(C)CC(O)c1cc(C(F)(F)F)ccc1O[C@@H]1[C@@H]2CC[C@H]1CN(c1ccc(C(F)(F)F)cn1)C2 (stereo partly shown) [5-255],100
16,FC(F)(F)c1ccc(N2CC3CCC(C2)C3Oc2ccc(C(F)(F)F)cc2OCC2CCCO2)nc1 (stereo not shown) [5-214],100
17,CCON=Cc1cc(C(F)(F)F)ccc1OC1CC2CCC(C1)N2c1ccc(C(F)(F)F)cn1 (stereo not shown) [2-203],100
18,CC(Br)COc1cc(C(F)(F)F)ccc1OC1CC2CCC(C1)N2c1ccc(C(F)(F)F)cn1 (stereo not shown) [2-195],100
19,CCNc1cc(C(F)(F)F)ccc1OC1CCN(c2ccc(C(F)(F)F)cn2)CC1 [1-172],100
20,Cc1cc(F)ccc1OC1CCN(c2ccc(C(F)(F)F)cn2)CC1 [1-48],100

row,SMILES,rate of killed adults [%]
1,Cc1ccc(N2CC3CCC(C2)C3Oc2ccc(C(F)(F)F)cc2OC2CC2(Cl)Cl)nc1 (stereo not shown) [5-210],100
2,C=CC(C)OC(=O)c1cc(C(F)(F)F)ccc1OC1CC2CCC(C1)[N+]2([O-])c1ccc(C(F)(F)F)cn1 (stereo not shown) [2-247],100
3,CCCC(=O)c1cc(C(F)(F)F)ccc1OC1C2CCC1CN(c1ccc(C(F)(F)F)cn1)C2 (stereo not shown) [5-240],100
4,Cc1coc(-c2cc(C(F)(F)F)ccc2OC2CC3CCC(C2)N3c2ccc(C(F)(F)F)cn2)n1 (stereo not shown) [2-209],100
5,FC(F)(F)c1ccc(N2CCC(Oc3c(Cl)cc(C(F)(F)F)cc3Cl)CC2)nc1 [1-16],100
6,"FC(F)(F)c1ccc(OC2CCN(c3ccc(C(F)(F)F)cn3)C2)cc1 (stereo not shown) [8-63, 3-[4-(trifluoromethyl)phenoxy]-1-[5-(trifluoromethyl)-2-pyridy]pyrrolidine]",100
7,CC(C)C(C)OC(=O)c1cc(C(F)(F)F)ccc1OC1CC2CCC(C1)N2c1ccc(C(F)(F)F)cn1 (stereo not shown) [2-232],100
8,CC(CCl)OC(=O)c1cc(C(F)(F)F)ccc1OC1CC2CCC(C1)N2c1ccc(C(F)(F)F)cn1 (stereo not shown) [2-233],100
9,CCCOc1cc(C(F)(F)F)ccc1OC1CC2CCC(C1)N2c1ccc(Cl)cn1 (stereo not shown) [2-85],100
10,CC(C)(O)COc1cc(C(F)(F)F)ccc1OC1C2CCC1CN(c1ccc(C(F)(F)F)cn1)C2 (stereo not shown) [5-129],100
11,N#Cc1cc(C(F)(F)F)ccc1O[C@@H]1[C@@H]2CC[C@H]1CN(c1ccc(C(F)(F)F)cn1)C2 [5-32],100
12,CCC(O)c1cc(C(F)(F)F)ccc1OC1CCN(c2ccc(C(F)(F)F)cn2)CC1 (stereo not shown) [1-67],100
13,FC(F)(F)c1ccc(N2CC3CCC(C2)C3Oc2ccc(C(F)(F)F)cc2OCc2ccco2)nc1 (stereo not shown) [5-206],100
14,CC(O)COc1cc(C(F)(F)F)ccc1OC1C2CCC1CN(c1ccc(C(F)(F)F)cn1)C2 (stereo not shown) [5-127],100
15,Cc1cc(Cl)ccc1OC1CCN(c2ccc(C(F)(F)F)cn2)CC1 [1-49],100
16,CC=Cc1cc(C(F)(F)F)ccc1OC1CCN(c2ccc(C(F)(F)F)cn2)CC1 [1-73],100
17,C=C(Cl)COc1cc(C(F)(F)F)ccc1OC1CC2CCC(C1)N2c1ccc(C(F)(F)F)cn1 (stereo not shown) [2-183],100
18,O=C(OC1CCCC1)c1cc(C(F)(F)F)ccc1OC1CC2CCC(C1)N2c1ccc(C(F)(F)F)cn1 (stereo not shown) [2-223],100
19,FC(F)(F)c1ccc(N2CC3CCC(C2)C3Oc2ccc(C(F)(F)F)cc2OCC2CCOC2)nc1 (stereo not shown) [5-205],100
20,CCCS(=O)(=O)Oc1cc(C(F)(F)F)ccc1OC1C2CCC1CN(c1ccc(C(F)(F)F)cn1)C2 (stereo not shown) [5-163],100

row,SMILES,rate of killed adults [%]
1,CN(C)C(=O)Sc1cc(C(F)(F)F)ccc1OC1CC2CCC(C1)N2c1ccc(C(F)(F)F)cn1 (stereo not shown) [2-157],100
2,C=CCc1cc(C(F)(F)F)ccc1O[C@@H]1[C@@H]2CC[C@H]1CN(c1ccc(C(F)(F)F)cn1)C2 [5-75],100
3,FC(F)(F)c1ccc(N2CC3CCC(C2)C3Oc2ccc(C(F)(F)F)cc2OCc2ccsc2)nc1 (stereo not shown) [5-208],100
4,C=C=COc1cc(C(F)(F)F)ccc1OC1CCN(c2ccc(C(F)(F)F)cn2)CC1 [1-143],100
5,C#CCON=Cc1cc(C(F)(F)F)ccc1OC1CC2CCC(C1)N2c1ccc(C(F)(F)F)cn1 (stereo not shown) [2-221],100
6,FC(F)(F)c1ccc(N2C3CCC2CC(Oc2ccc(C(F)(F)F)cc2OC2CCOC2)C3)nc1 (stereo not shown) [2-179],100
7,CC(C)(C)OC(=O)c1cc(C(F)(F)F)ccc1OC1CC2CCC(C1)N2c1ccc(C(F)(F)F)cn1 (stereo not shown) [2-198],100
8,COC(C)COc1cc(C(F)(F)F)ccc1OC1CC2CCC(C1)[N+]2([O-])c1ccc(C(F)(F)F)cn1 (stereo not shown) [2-174],100
9,COCCOc1cc(C(F)(F)F)ccc1OC1CCN(c2ccc(C(F)(F)F)cn2)CC1 [1-115],100
10,CON=Cc1cc(C(F)(F)F)ccc1OC1CC2CCC(C1)N2c1ccc(C(F)(F)F)cn1 (stereo not shown) [2-211],100
11,CCCCCOc1cc(C(F)(F)F)ccc1OC1CC2CCC(C1)N2c1ccc(C(F)(F)F)cn1 (stereo not shown) [2-100],100
12,CC(C)(C)C(=O)Oc1cc(C(F)(F)F)ccc1OC1C2CCC1CN(c1ccc(C(F)(F)F)cn1)C2 (stereo not shown) [5-200],100
13,FC(F)(F)c1ccc(N2CC3CCC(C2)C3Oc2ccc(C(F)(F)F)cc2C2CC=CO2)nc1 (stereo not shown) [5-235],100
14,CC(C)=CCOc1cc(C(F)(F)F)ccc1OC1C2CCC1CN(c1ccc(C(F)(F)F)cn1)C2 (stereo not shown) [5-139],100
15,CC1COC(c2cc(C(F)(F)F)ccc2OC2CC3CCC(C2)N3c2ccc(C(F)(F)F)cn2)=N1 (stereo not shown) [2-199],100
16,CC(COc1cc(C(F)(F)F)ccc1OC1C2CCC1CN(c1ccc(C(F)(F)F)cn1)C2)=NO (stereo not shown) [5-182],100
17,O=C(OC1CCOC1)c1cc(C(F)(F)F)ccc1OC1CC2CCC(C1)N2c1ccc(C(F)(F)F)cn1 (stereo not shown) [2-225],100
18,CCC1COC(c2cc(C(F)(F)F)ccc2OC2CC3CCC(C2)N3c2ccc(C(F)(F)F)cn2)=N1 (stereo not shown) [2-220],100
19,CCCN(C)c1cc(C(F)(F)F)ccc1OC1C2CCC1CN(c1ccc(C(F)(F)F)cn1)C2 (stereo not shown) [5-191],100

# Tested on: acaricide resistant citrus red mites
# Test: Effect on Citrus Red Mite (spray on mandarin orange leaves)
# Format: in vivo
# Conditions: 31 ppm, emulsifiable concentrate of Formulation Example 2 sprayed, 10 female adults, 25° C., 65% humidity
# Procedure: Effect on Citrus Red Mite
# 10 female adults of acaricide resistant citrus red mites were inoculated onto leaves of a mandarin orange placed on dishes, onto which each of liquid agents, diluted with water so as to adjust the respective concentration of the chemical compounds to 31 ppm according to the formulation of the emulsifiable concentrate shown in the aforementioned Formulation Example 2, was sprayed by using a rotating sparge tower. After they were left in a thermostatic chamber at 25° C. in 65% humidity for 3 days, and were then removed from the dishes, eggs laid for 3 days were investigated whether they could grow to adults or not on the eleventh day. As the results, the following chemical compounds killed 100% of the adults. 1-13, 1-15, 1-22, 1-27, 1-45, 1-54, 1-59, 1-63, 1-66, 1-69, 1-71, 1-72, 1-75, 1-80, 1-88, 1-89, 1-92, 1-93, 1-94, 1-97, 1-98, 1-100, 1-102, 1-105, 1-108, 1-133, 1-136, 1-142, 1-153, 1-181, 1-183, 1-186, 1-187, 1-188, 1-189, 1-190, 1-191,
row,SMILES,killed ... of the adults (eggs laid for 3 days investigated whether they could grow to adults on the eleventh day) [%]
1,CCCOc1cc(C(F)(F)F)ccc1OC1CCN(c2ccc(C(F)(F)F)cn2)CC1 [1-92],100
2,CCCC(O)c1cc(C(F)(F)F)ccc1OC1C2CCC1CN(c1ccc(C(F)(F)F)cn1)C2 (stereo not shown) [5-227],100
3,CCOC(=O)c1cc(C(F)(F)F)ccc1OC1C2CCC1CN(c1ccc(C(F)(F)F)cn1)C2 (stereo not shown) [5-233],100
4,FC(F)(F)c1ccc(N2CC3CCC(C2)C3Oc2ccc(C(F)(F)F)cc2C2OCCO2)nc1 (stereo not shown) [5-215],100
5,CC1CNC(c2cc(C(F)(F)F)ccc2O[C@@H]2[C@@H]3CC[C@H]2CN(c2ccc(C(F)(F)F)cn2)C3)O1 (stereo partly shown) [5-260],100
6,CCCNc1cc(C(F)(F)F)ccc1OC1C2CCC1CN(c1ccc(C(F)(F)F)cn1)C2 (stereo not shown) [5-190],100
7,COCOCc1cc(C(F)(F)F)ccc1O[C@@H]1[C@@H]2CC[C@H]1CN(c1ccc(C(F)(F)F)cn1)C2 [5-69],100
8,CCOCOCc1cc(C(F)(F)F)ccc1OC1CCN(c2ccc(C(F)(F)F)cn2)CC1 [1-71],100
